Values belong to the sequence of their own block, whether it stands above or below them.
How the values were obtained:
Test in all cases: pTyr-Var library bacterial peptide display kinase screen (enrichment scores)
c-Src kinase domain = c-Src kinase domain (Homo sapiens, UniProt P12931); format: biochemical; settings: sheet "Src";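 further: log2 fold change in enrichment of variant over reference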
Fer kinase domain = format: biochemical, mouse; settings: sheet "Fer"
c-Abl kinase domain = molecular target: T1, c-Abl kinase domain (Mus musculus, UniProt P00520); format: biochemical;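 further: log2 fold change in enrichment of variant over reference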
T1 sequence (P00520 242-493 limits assumed): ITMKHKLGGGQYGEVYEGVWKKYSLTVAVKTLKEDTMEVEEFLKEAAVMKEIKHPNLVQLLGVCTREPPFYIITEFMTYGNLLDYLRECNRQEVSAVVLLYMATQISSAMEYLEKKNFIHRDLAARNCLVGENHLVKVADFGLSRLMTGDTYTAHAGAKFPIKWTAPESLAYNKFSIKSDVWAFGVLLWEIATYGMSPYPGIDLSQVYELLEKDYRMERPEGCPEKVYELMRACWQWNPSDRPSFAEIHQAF

EPHB1 kinase domain = format: biochemical, human; settings: for Screen (variant relative to reference peptide, measured in the pTyr-Var library screen): sheet "EPHB1", variant seq vs reference seq, bacterial peptide display enrichment; for Screen: sheet EPHB1, effect of the variant peptide relative to its reference peptide in the pTyr-Var library screen (enrichment scores)
[1] = effect of the variant peptide relative to its reference peptide in the pTyr-Var library screen
[2] = value of the variant peptide against its reference peptide in the pTyr-Var library screen with Fer
[3] = variant peptide versus its reference peptide in the pTyr-Var library screen
[4] = fig5-data2, sheet "Abl", Screen for the variant/reference peptide pair, pTyr-Var library
[5] = variant peptide relative to its reference peptide, pTyr-Var library screen enrichment
[6] = sheet "Abl", effect of variant peptide relative to its reference peptide in pTyr-Var library screen (enrichment)

Sequence: EWQQIYTFDSG [JUP_Y20_T19I_YF]
Screen (c-Src kinase domain; [1]): 0.7952
Screen (Fer kinase domain; [2]): 3.242

Sequence: STEAIYWRFSK [SH3PXD2B_Y42_R43W_YF]
Screen (c-Src kinase domain; [3]): 2.709

Sequence: ELTSVYGSRAR [SENP1_Y349_D350G]
Screen (c-Src kinase domain; [3]): 0.9781

Sequence: NHFKIYNPCAE [PTEN_Y68_L70P_YF]
Screen (c-Src kinase domain; [3]): -2.716
Screen (c-Abl kinase domain; [4]): 0.7094

Screen (variant relative to reference peptide, measured in the pTyr-Var library screen) (EPHB1 kinase domain): 0.8704
Sequence: MGSFNYLGFPR [SPTLC2_Y178_A182P_YF]

Sequence: RGDTVYTVNCM [KBTBD13_Y404_R408C]
Screen (c-Src kinase domain; [1]): -0.9987

Screen (c-Abl kinase domain; [4]): -1.886
Sequence: LTQRTYMLENA [GPAA1_Y49_S51L]

Screen (c-Abl kinase domain; [4]): 1.153
Sequence: QRRLVYFERGA [RYR1_Y245_G248R_YF]

Sequence: LNSFIYSLRNR [OR1A1_Y288_P285S]
Screen (c-Src kinase domain; [3]): 0.8467
Screen (c-Abl kinase domain; [4]): 0.03527

Sequence: PAVGIYNGNIN [CDCP1_Y707_D709G]
Screen (c-Src kinase domain; [1]): 0.5447

Sequence: FDAHIYEGCVI [PRKCD_Y64_R67C]
Screen (c-Src kinase domain; [3]): 0.6982
Screen (Fer kinase domain; [2]): 2.331

Screen (Fer kinase domain; [5]): 2.795
Sequence: RAMPVYEKAEH [TP63_Y231_K232E]

Screen (c-Abl kinase domain; [6]): 3.465
Sequence: QFFQGYFNNNF [ZNF236_Y644_S643G]

Sequence: NTGFFYDLFGG [PTPN11_Y63_D61Y_YF]
Screen (c-Src kinase domain; [3]): -0.6353
Screen (Fer kinase domain; [5]): -1.238

Sequence: PFRFIYMAVQH [PTPN11_Y515_Q510P_YF]
Screen (c-Src kinase domain; [3]): -0.7023

Screen (EPHB1 kinase domain): -0.7312
Sequence: HSVLNYGVCVC [JAK2_Y613_L609S]

Sequence: PLDGEYFTRQI [TP53_Y327_L330R]
Screen (c-Src kinase domain; [3]): -2.245
Screen (c-Abl kinase domain; [6]): 1.752

Sequence: VTAALYGCLFE [BTD_Y536_R538C_YF]
Screen (c-Src kinase domain; [1]): -0.3028
Screen (c-Abl kinase domain; [4]): -0.06766

Sequence: PRRRFYVVACD [RNASE3_Y134_G130R]
Screen (c-Src kinase domain; [3]): -1.377

Sequence: IGEVVYQRAAM [GRIN2A_Y502_V506A]
Screen (c-Src kinase domain; [1]): -0.3302

Screen (c-Abl kinase domain; [4]): 0.5424
Sequence: REGAKYVSHGT [ASS1_Y113_A118T]

Screen (c-Abl kinase domain; [6]): 2.193
Sequence: QLLIEYPPEEV [ZZZ3_Y670_K669E]

Sequence: FAFQLYDLDPD [CHP2_Y123_R127P_YF]
Screen (c-Src kinase domain; [1]): 0.6897

Screen (c-Abl kinase domain; [4]): 0.6619
Sequence: GGPAEYLRRAS [PKLR_Y38_G37E]

Sequence: LGKGSYAKVRS [TSSK2_Y23_K27R]
Screen (c-Src kinase domain; [3]): -0.7681
Screen (c-Abl kinase domain; [6]): 0.9991

Screen (c-Abl kinase domain; [4]): 0.9369
Sequence: EDKSIYRRGAC [PRKCI_Y125_R130C]

Screen (c-Abl kinase domain; [6]): 1.685
Sequence: EKGEEYGGGGG [TUBA1A_Y451_E447K]

Screen (c-Abl kinase domain; [4]): 2.357
Sequence: EKKKFYDAKIE [CASP5_Y104_T106A_YF]

Screen (c-Abl kinase domain; [4]): -1.088
Sequence: CEAMEYPESKQ [BTK_Y511_L512P]

Sequence: VEDQFYRVDCF [FHL1_Y208_C209R_YF]
Screen (c-Src kinase domain; [1]): -0.6364
Screen (c-Abl kinase domain; [4]): 0.3405

Screen (c-Abl kinase domain; [4]): -1.28
Sequence: TGQEDYDRLRP [RAC1_Y64_A59T]

Sequence: HISGVYKLPPD [ANGPTL7_Y145_R140H]
Screen (c-Src kinase domain; [1]): 1.474

Screen (c-Abl kinase domain; [4]): 0.6452
Sequence: NDPMEYAKQHG [ASS1_Y163_L160P]

Sequence: QITQVYGFFHE [PPP2CA_Y127_D131H_YF]
Screen (c-Src kinase domain; [3]): 0.1908

Screen (c-Abl kinase domain; [6]): -1.807
Sequence: ISHVAYLVLGK [TRRAP_Y892_R893L]

Sequence: EGWQVYRLGTR [MISP_Y95_A99T]
Screen (c-Src kinase domain; [1]): -0.2875

Screen (c-Abl kinase domain; [4]): -0.9512
Sequence: LRAGVYREKDQ [DNM2_Y626_P627R]

Sequence: AVRFIYTIDGS [DCX_Y105_G100A_YF]
Screen (c-Src kinase domain; [1]): 0.6298

Screen (EPHB1 kinase domain): -1.134
Sequence: PAGSGYPAFLG [ATP6V1A_Y374_D371G_YF]

Screen (Fer kinase domain; [2]): -0.3574
Sequence: QRRFLYFFSFL [PTEN_Y176_V175L_YF]

Sequence: LITTLYIDFLG [KCNQ1_Y267_G269D]
Screen (c-Src kinase domain; [1]): -1.548

Screen (c-Abl kinase domain; [4]): 0.964
Sequence: CGTPEYRAPEI [PRKACA_Y205_L206R]

Sequence: CFCSWYRGWAP [TIMP3_Y195_G190C_YF]
Screen (c-Src kinase domain; [3]): 2.542
Screen (Fer kinase domain; [5]): 2.823

Screen (c-Abl kinase domain; [4]): -1.654
Sequence: QHVPDYRQNGF [PCDHGB6_Y889_V893G_YF]

Screen (c-Abl kinase domain; [4]): -0.1463
Sequence: DQVEQYNKELE [LMNA_Y259_K260N]

Sequence: NACGLYHTMNG [GATA5_Y216_K218T]
Screen (c-Src kinase domain; [1]): 2.558

Screen (c-Abl kinase domain; [4]): 0.9945
Sequence: CKLVDYDSARH [BIN1_Y150_R145C]

Sequence: LITTLYIGFLD [KCNQ1_Y267_G272D]
Screen (c-Src kinase domain; [1]): 0.3249
Screen (Fer kinase domain; [2]): 0.7229

Sequence: RRIHCYRGHLW [VHL_Y112_S111C]
Screen (c-Src kinase domain; [3]): -2.571
Screen (variant relative to reference peptide, measured in the pTyr-Var library screen) (EPHB1 kinase domain): -1.56

Sequence: LTDTVYSSSSA [OR4C12_Y71_I67T]
Screen (c-Src kinase domain; [3]): -0.5241
Screen (Fer kinase domain; [2]): 0.3207

Screen (c-Abl kinase domain; [4]): 1.189
Sequence: RNGDRYFKEIV [DCX_Y64_G67E]

Sequence: AHAGEYGAVAL [HBA1_Y25_E28V]
Screen (c-Src kinase domain; [1]): 2.935

Sequence: RNDRVYQPLRD [CD3D_Y149_Q147R]
Screen (c-Src kinase domain; [1]): -1.537
